In patent US7314877B2, “Benzofuran derivative” (Kowa Co., Ltd., priority 2003, dated 2008):

Legend:
[1] = tested on: TNF-α production; assay: TNF-α production inhibitory effect in LPS-stimulated RAW264.7 cells (ELISA); format: cell-based; conditions: Mus musculus, 8 h, lipopolysaccharide 1 μg/mL, eight hours incubation, TNF-α in culture supernatant by ELISA
Method: Method for Determining TNF-α Production Inhibitory Effect
RAW264.7 cells were suspended in a DMEM medium supplemented with 10% fetal bovine serum (FBS), and the suspension was seeded in wells of a 24-well plate (5×10^5/mL/well). Each test compound (0 to 10 μM) was added to the wells, and the mixture was incubated in a CO2 incubator for 30 minutes. Subsequently, lipopolysaccharide was added to the mixture in an amount of 1 μg/mL, and incubation was further performed in a CO2 incubator for eight hours. Eight hours after the start of incubation, the culture supernatant was collected, and the amount of TNF-α contained in the culture broth was determined through ELISA. IC50 value was determined through comparison with the amount of produced TNF-α in the drug-free (blank) case.

[2] = Test on absorption after oral administration in mouse; format: in vivo; conditions: male ICR mouse, 10 mg/kg oral, suspension in 0.5% HPMC, plasma at 0.25, 0.5, 1 and 4 hours, HPLC; FIG. 1
Method: Test on Absorption after Oral Administration in Mouse Each of the test compounds (Examples 7, 10, and 13) was suspended in 0.5% HPMC in a mortar. The suspension was orally administered to each male ICR mouse (6 weeks old) in an amount of 10 mg/kg. At each time of 0.25, 0.5, 1, and 4 hours after oral administration, a blood sample was collected and centrifuged, whereby a plasma sample was prepared. The level of the test compound in the plasma sample was determined through HPLC.

SMILES | IC50 [1] | melting point | absorption after oral administration (level of test compound in plasma) [2]
CN(C)Cc1cc(-c2ccc3c(c2)CCO3)nn(CC2CC2)c1=O [Example 3, 2-cyclopropylmethyl-6-(2,3-dihydro-1-benzofuran-5-yl)-4-dimethylaminomethyl-2H-pyridazin-3-one] | – | 109 to 110 °C | –
CN1CCN(Cc2cc(-c3ccc4c(c3)CCO4)nn(Cc3ccc(F)cc3)c2=O)CC1 [Example 6, 2-(4-fluorobenzyl)-6-(2,3-dihydro-1-benzofuran-5-yl)-4-(4-methyl-1-piperazinyl)methyl-2H-pyridazin-3-one] | 3.1 µM | 179 to 180 °C | –
CN1CCN(Cc2cc(-c3ccc4c(c3)CCO4)nn(Cc3ccc(F)cc3)c2=O)CC1.Cl.Cl [Example 7, 2-(4-fluorobenzyl)-6-(2,3-dihydro-1-benzofuran-5-yl)-4-(4-methyl-1-piperazinyl)methyl-2H-pyridazin-3-one dihydrochloride] | – | 201 to 204 °C (dec.) | good absorbability
CN1CCN(Cc2cc(-c3ccc4c(c3)CCO4)nn(CC=Cc3ccc(Cl)cc3)c2=O)CC1.Cl.Cl [Example 10, 2-(4-chlorocinnamyl)-6-(2,3-dihydro-1-benzofuran-5-yl)-4-(4-methyl-1-piperazinyl)methyl-2H-pyridazin-3-one dihydrochloride] | – | – | good absorbability
CN1CCN(Cc2cc(-c3ccc4c(c3)CCO4)nn(Cc3ccccc3Cl)c2=O)CC1 [Example 17, 2-(2-chlorobenzyl)-6-(2,3-dihydro-1-benzofuran-5-yl)-4-(4-methyl-1-piperazinyl)methyl-2H-pyridazin-3-one] | 7.5 µM | 141.4 to 142.1 °C | –

Results, then the molecule that gave them:

IC50 [1] | melting point | absorption after oral administration (level of test compound in plasma) [2] | SMILES
8.9 µM | 128 to 130 °C | – | CN1CCN(Cc2cc(-c3ccc4c(c3)CCO4)nn(CC3CC3)c2=O)CC1 [Example 1, 2-cyclopropylmethyl-6-(2,3-dihydro-1-benzofuran-5-yl)-4-(4-methyl-1-piperazinyl)methyl-2H-pyridazin-3-one]
– | 149 to 150 °C | – | CN1CCN(Cc2cc(-c3ccc4c(c3)CCO4)nn(Cc3ccc(Cl)cc3)c2=O)CC1 [Example 8, 2-(4-chlorobenzyl)-6-(2,3-dihydro-1-benzofuran-5-yl)-4-(4-methyl-1-piperazinyl)methyl-2H-pyridazin-3-one]
4.2 µM | 112 to 113 °C | – | CN1CCN(Cc2cc(-c3ccc4c(c3)CCO4)nn(CC=Cc3ccc(Cl)cc3)c2=O)CC1 [Example 9, 2-(4-chlorocinnamyl)-6-(2,3-dihydro-1-benzofuran-5-yl)-4-(4-methyl-1-piperazinyl)methyl-2H-pyridazin-3-one]
– | 128 to 130 °C | – | CN1CCN(Cc2cc(-c3ccc4occc4c3)nn(Cc3ccc(F)cc3)c2=O)CC1 [Example 11, 6-(1-benzofuran-5-yl)-2-(4-fluorobenzyl)-4-(4-methyl-1-piperazinyl)methyl-2H-pyridazin-3-one]
2.2 µM | – | – | CN1CCN(Cc2cc(-c3ccc4c(c3)CCO4)nn(CCCc3ccccc3Cl)c2=O)CC1 [Example 12, 2-[3-(2-chlorophenyl)propyl]-6-(2,3-dihydro-1-benzofuran-5-yl)-4-(4-methyl-1-piperazinyl)methyl-2H-pyridazin-3-one]
– | – | good absorbability | CN1CCN(Cc2cc(-c3ccc4c(c3)CCO4)nn(CCCc3ccccc3Cl)c2=O)CC1.Cl.Cl [Example 13, 2-[3-(2-chlorophenyl)propyl]-6-(2,3-dihydro-1-benzofuran-5-yl)-4-(4-methyl-1-piperazinyl)methyl-2H-pyridazin-3-one dihydrochloride]
7.5 µM | 120.1 to 122.8 °C | – | NCc1cc(-c2ccc3c(c2)CCO3)nn(Cc2ccccc2Cl)c1=O [Example 18, 4-aminomethyl-2-(2-chlorobenzyl)-6-(2,3-dihydro-1-benzofuran-5-yl)-2H-pyridazin-3-one]
